From paper PMC9465256, “Discovering monoacylglycerol lipase inhibitors by a combination of fluorogenic substrate assay and activity-based protein profiling” (Frontiers in Pharmacology, 2022)

How the values were obtained:
human ABHD12 = biological target: T1, human ABHD12 (Homo sapiens, UniProt Q8N2K0); assay: ABHD12 activity by competitive ABPP with FP-TAMRA; format: biochemical; conditions: for potency towards ABHD12: 100 µM; for potency towards ABHD12 / inhibition at 100 µM: competitive ABPP; for inhibition at 100 µM: recombinant human ABHD12, 100 µM compound
T1 construct: expressed in transfected cells; host or cells: HEK293T (transient transfection; membrane fraction)
T1 sequence (Q8N2K0 1-398): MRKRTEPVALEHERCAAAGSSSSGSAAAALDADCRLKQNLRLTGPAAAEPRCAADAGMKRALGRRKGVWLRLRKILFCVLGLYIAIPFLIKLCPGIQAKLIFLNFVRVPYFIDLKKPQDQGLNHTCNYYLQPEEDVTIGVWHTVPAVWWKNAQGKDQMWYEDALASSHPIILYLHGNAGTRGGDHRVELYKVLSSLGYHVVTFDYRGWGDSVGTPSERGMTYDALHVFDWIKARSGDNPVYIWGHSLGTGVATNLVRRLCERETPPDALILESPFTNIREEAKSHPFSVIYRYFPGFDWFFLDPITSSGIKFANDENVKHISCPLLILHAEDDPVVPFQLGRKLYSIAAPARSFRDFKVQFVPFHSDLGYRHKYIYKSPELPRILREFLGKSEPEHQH
Procedure, shortened: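 Membrane fractions of HEK293T cells transiently overexpressing human ABHD12 (1 mg/ml) preincubated with inhibitor or DMSO for 30 min at room temperature, then labelled with FP-TAMRA (250 nM final) for 20 min. Quenched samples resolved by SDS-PAGE and read by in-gel fluorescence scanning (Cy3 settings).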

HT-29 cells = assay: Cell viability assay (CCK-8), HT-29; format: cell-based, human; conditions: HT-29, 48 h; for IC50: Homo sapiens, read-out: Antiproliferation activity (pIC50 ± SEM) HT-29 (converted)
Experimental: (§1) Various cancer cell lines, including human colon cancer cell line HT-29, ovarian cell line OVCAR-3, melanoma cell line B16-F10, skin squamous cancer cells A431, cervical cancer cells Hela, lung cancer cell lines A549, H1975, and HCC827, were purchased from American type culture collection (ATCC). A431, H1975, B16-F10, OVCAR-3, HT-29, HCC827, Hela, and A549 cells were cultured in Dulbecco’s modified Eagle medium (DMEM, Gibco) containing 10% fetal bovine serum (FBS, Gibco), penicillin (100 U/ml) and streptomycin (100 μg/ml). All cell lines were maintained in a humidified 37°C incubator with 5% CO2. The medium was refreshed every 2–3 days and the cells were passaged at ∼90% confluence by adding the fresh medium, followed by vigorously pipetting the resuspend cells. Of note, the cells were only washed with PBS when a significant number of dead cells were observed.
(§2) The antiproliferation activity of the compounds against the cancer cell lines was evaluated using Cell Counting Kit-8. Briefly, cells (∼1,000 per well) in 100 µl of culture medium were plated in a 96-well plate for 24 h and 100 µl of medium with different concentrations of the tested compounds was added to each well for 48 h. Then 10 μl of CCK8 solution (#CK04, Dojindo) was added and incubated at 37°C for 2 h. The absorbance of each well was measured with a plate reader (BioTeck) at 450 nm. Cell viability was calculated as follows: cell viability (%) = [(As-Ab)/(Ac-Ab)] × 100. Among them, As represents the absorbance of experimental wells, Ab represents the absorbance of blank wells and Ac represents the absorbance of control wells. The experiments were repeated at least three times and IC50 values were determined by plotting a log(inhibitor) v. s normalized response (Variable slope) dose–response curve generated using GraphPad Prism software.

HCC827 cells = assay: Cell viability assay (CCK-8), HCC827; format: cell-based; conditions: HCC827, 48 h; for IC50: Homo sapiens, read-out: Antiproliferation activity (pIC50 ± SEM) HCC827 (converted)
Experimental: as §1, §2

[1] = 100 µM compound, competitive ABPP with probe FP-TAMRA (250 nM), read-out: ABHD12 Inhibition (%)

SMILES	activity at 100 µM (human ABHD12; [1])	potency towards ABHD12 (human ABHD12)	inhibition at 100 µM (human ABHD12)	IC50 (HT-29 cells)	IC50 (HCC827 cells)	activity (human ABHD12; [1])	Antiproliferation activity (pIC50 ± SEM) HT-29 (HT-29 cells)	Antiproliferation activity (pIC50 ± SEM) HCC827 (HCC827 cells)
C[C@H]1COC2=C1C(=O)C(=O)c1c2ccc2c1CCCC2(C)C [compound 23, Cryptotanshinone]	81.6%	neglectable potency	18%	10 µM	6.31 µM			
Cl.N=c1ccn2c(n1)O[C@H]1[C@H](O)[C@@H](CO)O[C@H]12 [compound 1, Cyclocytidine HCl]						70.1%	<5	5.1 ± 0.2
O=c1cc(-c2ccc(O)cc2)oc2cc(O)cc(O)c12 [compound 9, Apigenin]	62.8%	neglectable potency	37%	> 10 µM	> 10 µM			
COc1ccc2cc3[n+](cc2c1OC)CCc1cc2c(cc1-3)OCO2 [compound 17, Berberine chloride]	86.1%			> 10 µM	> 10 µM			
COc1ccc(C(C)=O)c(O)c1 [compound 64, Paeonol]	92.2%			> 10 µM	> 10 µM			
